“And” between values parts separate entries of the source, which are not always exact repeats. Identical values can stand only once.
Tested on: BDF1 mice, Adenocarcinoma 755 s.c., tumor weight T/C
Experiment: NCI In Vivo Anticancer Drug Screen. Data for tumor model Adenocarcinoma 755 (subcutaneous) in B6D2F1 (BDF1) mice
Settings: endpoint: mean tumor weight, higher = larger tumour
In short: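 Readout: T/C, i.e. treated-group measurement over vehicle-control measurement. Endpoint is survival or tumor size in tumor-bearing mice given compound.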

[1] = dose: 10.0 mg/kg/injection, schedule: Q01DX011 (ip), vehicle: carboxymethylcellulose (CMC)

CS(=O)(=O)OCCCCOS(C)(=O)=O
T/C (dose: 3.75 mg/kg/injection, schedule: Q03DX004 (ip), vehicle: saline): 111 % of control | T/C (dose: 5.0 mg/kg/injection, schedule: Q#A X022 (ip), vehicle: saline): 54 % of control | T/C (dose: 6.63 mg/kg/injection, schedule: Q01DX011 (ip), vehicle: carboxymethylcellulose (CMC)): 95 % of control | T/C (dose: 6.66 mg/kg/injection, schedule: Q01DX011 (ip), vehicle: carboxymethylcellulose (CMC)): 99 % of control | T/C (dose: 9.36 mg/kg/injection, schedule: Q01DX011 (ip), vehicle: carboxymethylcellulose (CMC)): 66 % of control | T/C (dose: 10.0 mg/kg/injection, schedule: Q01DX006 (iv), vehicle: saline): 117 % of control | T/C (dose: 10.0 mg/kg/injection, schedule: Q01DX011 (im), vehicle: saline): 36 % of control | T/C [1]: 62 % of control | T/C (dose: 10.0 mg/kg/injection, schedule: Q01DX011 (ip), vehicle: saline): 71 % of control | T/C (dose: 10.0 mg/kg/injection, schedule: Q01DX011 (oral), vehicle: saline): 81 % of control | T/C (dose: 10.0 mg/kg/injection, schedule: Q01DX011 (sc), vehicle: saline): 35 % of control | T/C (dose: 10.0 mg/kg/injection, schedule: Q#A X022 (ip), vehicle: saline): 80 % of control | T/C (dose: 12.5 mg/kg/injection, schedule: Q01DX011 (ip), vehicle: methylcellulose (MC)): 119 % of control | T/C (dose: 13.25 mg/kg/injection, schedule: Q01DX011 (ip), vehicle: carboxymethylcellulose (CMC)): 101 % of control | T/C (dose: 15.0 mg/kg/injection, schedule: Q03DX004 (ip), vehicle: saline): 87 % of control | T/C (dose: 16.75 mg/kg/injection, schedule: Q01DX011 (ip), vehicle: carboxymethylcellulose (CMC)): 68 % of control | T/C (dose: 17.5 mg/kg/injection, schedule: Q01DX011 (ip), vehicle: carboxymethylcellulose (CMC)): 106 % of control | T/C (dose: 17.87 mg/kg/injection, schedule: Q01DX011 (ip), vehicle: carboxymethylcellulose (CMC)): 77 % of control | T/C (dose: 18.73 mg/kg/injection, schedule: Q01DX011 (ip), vehicle: carboxymethylcellulose (CMC)): 76 % of control | T/C (dose: 20.0 mg/kg/injection, schedule: Q01DX006 (iv), vehicle: saline): 100 % of control | T/C (dose: 20.0 mg/kg/injection, schedule: Q01DX011 (im), vehicle: saline): 76 % of control | T/C (dose: 20.0 mg/kg/injection, schedule: Q01DX011 (ip), vehicle: carboxymethylcellulose (CMC)): 76 % of control | T/C (dose: 20.0 mg/kg/injection, schedule: Q01DX011 (oral), vehicle: saline): 49 % of control | T/C (dose: 20.0 mg/kg/injection, schedule: Q01DX011 (sc), vehicle: saline): 104 % of control | T/C (dose: 20.0 mg/kg/injection, schedule: Q#A X022 (ip), vehicle: saline): 39 % of control | T/C (dose: 21.2 mg/kg/injection, schedule: Q01DX011 (ip), vehicle: carboxymethylcellulose (CMC)): 91 % of control | T/C (dose: 21.32 mg/kg/injection, schedule: Q01DX011 (ip), vehicle: carboxymethylcellulose (CMC)): 81 % of control | T/C (dose: 25.0 mg/kg/injection, schedule: Q01DX011 (ip), vehicle: methylcellulose (MC)): 77 % of control | T/C (dose: 26.5 mg/kg/injection, schedule: Q01DX011 (ip), vehicle: carboxymethylcellulose (CMC)): 26 % of control and 50 % of control | T/C (dose: 26.65 mg/kg/injection, schedule: Q01DX011 (ip), vehicle: carboxymethylcellulose (CMC)): 53 % of control and 63 % of control | T/C (dose: 33.5 mg/kg/injection, schedule: Q01DX011 (ip), vehicle: carboxymethylcellulose (CMC)): 83 % of control | T/C (dose: 35.0 mg/kg/injection, schedule: Q01DX011 (ip), vehicle: carboxymethylcellulose (CMC)): 98 % of control | T/C (dose: 35.33 mg/kg/injection, schedule: Q01DX011 (ip), vehicle: carboxymethylcellulose (CMC)): 34 % of control | T/C (dose: 35.5 mg/kg/injection, schedule: Q01DX011 (ip), vehicle: carboxymethylcellulose (CMC)): 38 % of control | T/C (dose: 35.75 mg/kg/injection, schedule: Q01DX011 (ip), vehicle: carboxymethylcellulose (CMC)): 81 % of control | T/C (dose: 37.45 mg/kg/injection, schedule: Q01DX011 (ip), vehicle: carboxymethylcellulose (CMC)): 73 % of control | T/C (dose: 40.0 mg/kg/injection, schedule: Q01DX006 (iv), vehicle: saline): 84 % of control | T/C (dose: 40.0 mg/kg/injection, schedule: Q01DX011 (im), vehicle: saline): 17 % of control | T/C (dose: 40.0 mg/kg/injection, schedule: Q01DX011 (ip), vehicle: carboxymethylcellulose (CMC)): 10 % of control | T/C (dose: 40.0 mg/kg/injection, schedule: Q01DX011 (oral), vehicle: saline): 30 % of control and 49 % of control | T/C (dose: 40.0 mg/kg/injection, schedule: Q01DX011 (sc), vehicle: saline): 41 % of control and 45 % of control | T/C (dose: 40.0 mg/kg/injection, schedule: Q#A X022 (ip), vehicle: saline): 17 % of control | T/C (dose: 50.0 mg/kg/injection, schedule: Q01DX011 (ip), vehicle: methylcellulose (MC)): 30 % of control | T/C (dose: 53.0 mg/kg/injection, schedule: Q01DX011 (ip), vehicle: carboxymethylcellulose (CMC)): 3 % of control | T/C (dose: 53.3 mg/kg/injection, schedule: Q01DX011 (ip), vehicle: carboxymethylcellulose (CMC)): 1 % of control | T/C (dose: 57.96 mg/kg/injection, schedule: Q01DX011 (ip), vehicle: carboxymethylcellulose (CMC)): 113 % of control | T/C (dose: 60.0 mg/kg/injection, schedule: Q03DX004 (ip), vehicle: saline): 67 % of control and 71 % of control | T/C (dose: 67.0 mg/kg/injection, schedule: Q01DX011 (ip), vehicle: carboxymethylcellulose (CMC)): 37 % of control | T/C (dose: 70.0 mg/kg/injection, schedule: Q01DX001 (ip), vehicle: saline): 90 % of control | T/C (dose: 70.0 mg/kg/injection, schedule: Q01DX011 (ip), vehicle: carboxymethylcellulose (CMC)): 49 % of control | T/C (dose: 70.0 mg/kg/injection, schedule: Q07DX002 (ip), vehicle: saline): 99 % of control | T/C (dose: 71.5 mg/kg/injection, schedule: Q01DX011 (ip), vehicle: carboxymethylcellulose (CMC)): 58 % of control | T/C (dose: 72.45 mg/kg/injection, schedule: Q01DX011 (ip), vehicle: carboxymethylcellulose (CMC)): 29 % of control | T/C (dose: 80.0 mg/kg/injection, schedule: Q01DX006 (iv), vehicle: saline): 88 % of control | T/C (dose: 80.0 mg/kg/injection, schedule: Q01DX011 (oral), vehicle: saline): 17 % of control and 27 % of control | T/C (dose: 96.6 mg/kg/injection, schedule: Q01DX011 (ip), vehicle: carboxymethylcellulose (CMC)): 19 % of control | T/C (dose: 120.0 mg/kg/injection, schedule: Q03DX004 (ip), vehicle: saline): 39 % of control and 62 % of control | T/C (dose: 140.0 mg/kg/injection, schedule: Q01DX001 (ip), vehicle: saline): 98 % of control and 111 % of control | T/C (dose: 140.0 mg/kg/injection, schedule: Q07DX002 (ip), vehicle: saline): 91 % of control | T/C (dose: 160.0 mg/kg/injection, schedule: Q01DX011 (ip), vehicle: saline): 14 % of control | T/C (dose: 160.0 mg/kg/injection, schedule: Q01DX011 (oral), vehicle: saline): 41 % of control | T/C (dose: 240.0 mg/kg/injection, schedule: Q03DX004 (ip), vehicle: saline): 24 % of control and 38 % of control | T/C (dose: 280.0 mg/kg/injection, schedule: Q07DX002 (ip), vehicle: saline): 77 % of control | T/C (dose: 320.0 mg/kg/injection, schedule: Q01DX011 (oral), vehicle: saline): 9 % of control | T/C (dose: 1120.0 mg/kg/injection, schedule: Q01DX001 (ip), vehicle: saline): 58 % of control

Cn1c(N)c(N=O)c(=O)n(C)c1=O
T/C (dose: 175.0 mg/kg/injection, schedule: Q01DX011 (oral), vehicle: other): 99 % of control | T/C (dose: 250.0 mg/kg/injection, schedule: Q01DX011 (ip), vehicle: carboxymethylcellulose (CMC)): 81 % of control | T/C (dose: 350.0 mg/kg/injection, schedule: Q01DX011 (ip), vehicle: carboxymethylcellulose (CMC)): 28 % of control | T/C (dose: 350.0 mg/kg/injection, schedule: Q01DX011 (oral), vehicle: other): 80 % of control | T/C (dose: 1400.0 mg/kg/injection, schedule: Q01DX011 (oral), vehicle: methylcellulose (MC)): 105 % of control | T/C (dose: 2000.0 mg/kg/injection, schedule: Q01DX011 (oral), vehicle: other): 74 % of control | T/C (dose: 2800.0 mg/kg/injection, schedule: Q01DX011 (oral), vehicle: other): 118 % of control

CN(N=O)C(=O)C1CC(=O)NC(=O)C1
T/C (dose: 2.5 mg/kg/injection, schedule: Q01DX011 (ip), vehicle: carboxymethylcellulose (CMC)): 39 % of control | T/C (dose: 5.0 mg/kg/injection, schedule: Q01DX011 (ip), vehicle: carboxymethylcellulose (CMC)): 102 % of control | T/C [1]: 114 % of control

C[C@]12CCC(=O)C=C1CC[C@@H]1[C@@H]2C(=O)C[C@@]2(C)[C@H]1CC[C@]2(O)C(=O)COS(=O)(=O)O
T/C (dose: 5.0 mg/kg/injection, schedule: Q01DX011 (sc), vehicle: steriod suspending solution): 100 % of control | T/C (dose: 50.0 mg/kg/injection, schedule: Q01DX011 (sc), vehicle: steriod suspending solution): 91 % of control | T/C (dose: 100.0 mg/kg/injection, schedule: Q01DX011 (sc), vehicle: steriod suspending solution): 57 % of control

Nc1ncnc2c1ncn2C1CCCC(CO)O1 (stereo unspecified)
T/C (dose: 50.0 mg/kg/injection, schedule: Q01DX011 (ip), vehicle: saline): 196 % of control | T/C (dose: 100.0 mg/kg/injection, schedule: Q01DX011 (ip), vehicle: saline): 115 % of control | T/C (dose: 200.0 mg/kg/injection, schedule: Q01DX011 (ip), vehicle: saline): 93 % of control

Reference: PubChem BioAssay AID180 (DTP/NCI, 2004)
